Measurements taken from patent US20070197602A1, “Combined pharmaceutical composition” (priority 2004, published 2007).

Tested on: streptozotocin-induced diabetic model
Assay: Test Example 3: sucrose loading in streptozotocin-induced diabetic model, plasma glucose (GLU)
Type: in vivo, rat
Conditions: STZ rats; for GLU concentration before loading: Day 23, after oral once a day for 9 days, plasma glucose; for GLU concentration before loading / GLU concentration after loading / Rate of Change (GLU concentration after loading relative to before loading): metformin 50 mg/kg, voglibose 0.2 mg/kg, fenofibrate 50 mg/kg; for GLU concentration after loading: Day 24, 60 minutes after sucrose 2.5 g/kg oral given immediately after test article; for blood sugar level change by the sucrose loading (in words) / Rate of Change (GLU concentration after loading relative to before loading): sucrose loading 2.5 g/kg; for blood sugar level change by the sucrose loading (in words): STZ-treated control increased about 20%
Description: At 13 days after administration (Day 13), blood was collected from the rats, and plasma glucose (GLU) concentration was measured. […] From Day 14 (14 days after STZ administration), test articles shown in Table 1 were orally administered to the rats once a day for 9 days. At 23 days after STZ administration (Day 23), the GLU concentration was measured (previous value: GLU concentration before sucrose loading) (incidentally, the test articles were not administered on Day 23). […] Moreover, “N” represents the number of rats for determining the GLU concentration in the Table.

CC(C)OC(=O)C(C)(C)Oc1ccc(C(=O)c2ccc(Cl)cc2)cc1 [Fenofibrate]
GLU concentration before loading: 4.26 ± 0.55 g/L
GLU concentration after loading: 4.78 ± 0.34 g/L

CN(C)C(=N)N=C(N)N [Metformin]
GLU concentration before loading: 4.57 ± 0.36 g/L
GLU concentration after loading: 5.41 ± 0.38 g/L
blood sugar level change by the sucrose loading (in words): increased
Rate of Change (GLU concentration after loading relative to before loading): 118.4%

OCC(CO)N[C@H]1C[C@](O)(CO)[C@@H](O)[C@H](O)[C@H]1O [Voglibose]
GLU concentration before loading: 4.30 ± 0.47 g/L
GLU concentration after loading: 4.50 ± 0.42 g/L
blood sugar level change by the sucrose loading (in words): inhibited
Rate of Change (GLU concentration after loading relative to before loading): 104.7%
